pIC50: −log10 of the molar value.

Broadly, the pIC50 is −log10 of the IC50, conventionally taken in molar units. A high value points to a small IC50.

Sequence of human P2X3 receptor (P56373 whole entry): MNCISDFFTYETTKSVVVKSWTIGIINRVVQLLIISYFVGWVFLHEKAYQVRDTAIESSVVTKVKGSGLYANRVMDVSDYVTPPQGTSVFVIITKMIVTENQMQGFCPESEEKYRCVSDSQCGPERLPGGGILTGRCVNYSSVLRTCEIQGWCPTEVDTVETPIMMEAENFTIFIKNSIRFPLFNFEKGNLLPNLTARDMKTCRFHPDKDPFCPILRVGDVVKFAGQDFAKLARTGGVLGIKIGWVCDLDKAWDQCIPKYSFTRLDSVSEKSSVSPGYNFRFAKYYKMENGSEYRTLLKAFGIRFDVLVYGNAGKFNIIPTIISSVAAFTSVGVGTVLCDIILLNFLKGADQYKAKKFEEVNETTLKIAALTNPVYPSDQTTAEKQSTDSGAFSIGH

The assay has as its target human P2X3 receptor (Homo sapiens (Human), UniProt P56373). The assay is described as follows: Evaluation of human P2X3 receptor inhibitory activity (Test Example 1). In kind it is cell-based. The note with it: C6BU-1 cell transfected with human P2X3 receptor gene, FLIPR 384. The procedure, abridged:
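C6BU-1 cells stably expressing human P2X3, loaded with 4 μM Fluo-3-AM 1 h at 37 °C, preincubated 5 min with test compound, then stimulated with 150 nM ATP solution (stock, pre-dispense) and monitored by FLIPR for 4 min. IC50 derived from maximum fluorescence ratio (post-ATP peak over baseline).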
On to `COC(=O)[C@H](C)[C@H](C)n1c(=O)[nH]/c(=N\c2ccc(Oc3cncc(F)c3)c(F)c2)n(Cc2ccc(Cl)cc2)c1=O` [Compound R-187], for which the pIC50 was 7.68.
Next, `Cc1cc(/N=c2\[nH]c(=O)n([C@@H](C)[C@@H](C)C(=O)O)c(=O)n2Cc2ccc(Cl)cc2)ccc1Oc1cncc(F)c1` [Compound R-188]: 8.05.
`C[C@@H](C(=O)O)[C@H](C)n1c(=O)[nH]/c(=N\c2ccc(Oc3cncc(F)c3)c(F)c2)n(Cc2ccc(Cl)cc2)c1=O` [Compound R-189]: the negative-log IC50 (pIC50) was 8.10.
Next, `COc1ccc(Oc2ccc(/N=c3\[nH]c(=O)n(CC(C)(C)C(=O)O)c(=O)n3Cc3ccc(Cl)cc3)cc2)nn1` [Compound R-190]: 8.05; `COc1ccc(Oc2ccc(/N=c3\[nH]c(=O)n([C@@H](C)[C@@H](C)C(=O)O)c(=O)n3Cc3ccc(Cl)cc3)cc2)nn1` [Compound R-191]: 7.92; `C[C@@H](Cn1c(=O)[nH]/c(=N\c2ccc(Oc3nc4ccccc4s3)cc2)n(Cc2ccc(Cl)cc2)c1=O)C(=O)O` [Compound R-192]: 8.40.
`COC(=O)C(C)(C)Cn1c(=O)[nH]/c(=N\c2ccc(Oc3cncc(C)c3)cc2)n(Cc2ccc(Cl)cc2)c1=O` [Compound R-193] showed a negative-log IC50 (pIC50) of 7.96.
With `Cc1cncc(Oc2ccc(/N=c3\[nH]c(=O)n(CC(C)(C)C(=O)O)c(=O)n3Cc3ccc(Cl)cc3)cc2)c1` [Compound R-194], the pIC50 is 7.89.
In turn, `C[C@@H](Cn1c(=O)[nH]/c(=N\c2ccc(Oc3ncns3)cc2)n(Cc2ccc(Cl)cc2)c1=O)C(=O)O` [Compound R-195] gave a pIC50 of 8.05. The pIC50 values of the last two compounds are within 0.2 log units of each other.
As to `C[C@@H](Cn1c(=O)[nH]/c(=N\c2ccc(Oc3ccc(F)nn3)cc2)n(Cc2ccc(Cl)cc2)c1=O)C(=O)O` [Compound R-196], the pIC50 was 7.96.
Next, `C[C@@H](Cn1c(=O)[nH]/c(=N\c2ccc(Oc3ccc(Cl)nn3)cc2)n(Cc2ccc(Cl)cc2)c1=O)C(=O)O` [Compound R-197]: 8.15.
The compound `C[C@@H](Cn1c(=O)[nH]/c(=N\c2ccc(Oc3cc(F)ncn3)cc2)n(Cc2ccc(Cl)cc2)c1=O)C(=O)O` [Compound R-198] showed a negative-log IC50 (pIC50) of 8.05.
As for `COC(=O)[C@@H](C)Cn1c(=O)[nH]/c(=N\c2ccc(Oc3cncc(OC)c3)cc2)n(Cc2ccc(Cl)cc2)c1=O` [Compound R-199], the negative-log IC50 (pIC50) was 8.15. The pIC50 values of the last two compounds are within 0.2 log units of each other.
Consider `COC(=O)C(C)(C)Cn1c(=O)[nH]/c(=N\c2ccc(Oc3cncc(OC)c3)cc2)n(Cc2ccc(Cl)cc2)c1=O` [Compound R-200], for which the negative logarithm of the IC50 (pIC50) is 8.10.
The result for `COc1cncc(Oc2ccc(/N=c3\[nH]c(=O)n(C[C@H](C)C(=O)O)c(=O)n3Cc3ccc(Cl)cc3)cc2)c1` [Compound R-201] reads 8.10; that for `COc1cncc(Oc2ccc(/N=c3\[nH]c(=O)n(CC(C)(C)C(=O)O)c(=O)n3Cc3ccc(Cl)cc3)cc2)c1` [Compound R-202], 7.92; that for `C[C@@H](Cn1c(=O)[nH]/c(=N\c2ccc(Oc3nc4ncccc4o3)cc2)n(Cc2ccc(Cl)cc2)c1=O)C(=O)O` [Compound R-204], 8.10.
The result for `COC(=O)[C@@H](C)Cn1c(=O)[nH]/c(=N\c2ccc(Oc3cccnc3)cc2)n(Cc2ccc(Cl)cc2)c1=O` [Compound R-205] reads 8.10.
Next, `COC(=O)[C@@H](C)Cn1c(=O)[nH]/c(=N\c2ccc(Oc3ccncc3)cc2)n(Cc2ccc(Cl)cc2)c1=O` [Compound R-206]: 8.30.
Regarding `C[C@@H](Cn1c(=O)[nH]/c(=N\c2ccc(Oc3cccnc3)cc2)n(Cc2ccc(Cl)cc2)c1=O)C(=O)O` [Compound R-207], the pIC50 is 8.05.
Compound `C[C@@H](Cn1c(=O)[nH]/c(=N\c2ccc(Oc3ccncc3)cc2)n(Cc2ccc(Cl)cc2)c1=O)C(=O)O` [Compound R-208] had a pIC50 of 8.30.
Next, `C[C@@H](Cn1c(=O)[nH]/c(=N\c2ccc(Oc3nccnc3Cl)cc2)n(Cc2ccc(Cl)cc2)c1=O)C(=O)O` [Compound R-211]: 8.15; `C[C@@H](C(=O)O)[C@H](C)n1c(=O)[nH]/c(=N\c2ccc(Oc3ccnc(C#N)c3)cc2)n(Cc2ccc(Cl)cc2)c1=O` [Compound R-212]: 8.10; `COC(=O)[C@H](C)[C@H](C)n1c(=O)[nH]/c(=N\c2ccc(Oc3ncc(C)s3)cc2)n(Cc2ccc(C)cc2)c1=O` [Compound R-213]: 7.92.
On to `COC(=O)[C@@H](C)Cn1c(=O)[nH]/c(=N\c2ccc(Oc3ncc(C)s3)cc2)n(Cc2ccc(C)cc2)c1=O` [Compound R-214], for which the pIC50 was 8.22.
Next, `COC(=O)C(C)(C)Cn1c(=O)[nH]/c(=N\c2ccc(Oc3ncc(C)s3)cc2)n(Cc2ccc(C)cc2)c1=O` [Compound R-215]: 8.22.
The result for `Cc1ccc(Cn2c(=O)n([C@@H](C)[C@@H](C)C(=O)O)c(=O)[nH]/c2=N\c2ccc(Oc3ncc(C)s3)cc2)cc1` [Compound R-217] reads 8.10; that for `Cc1ccc(Cn2c(=O)n(C[C@H](C)C(=O)O)c(=O)[nH]/c2=N\c2ccc(Oc3ncc(C)s3)cc2)cc1` [Compound R-218], 8.22; that for `Cc1ccc(Cn2c(=O)n(CC(C)(C)C(=O)O)c(=O)[nH]/c2=N\c2ccc(Oc3ncc(C)s3)cc2)cc1` [Compound R-219], 7.96.
`CCc1oc2ccc(/N=c3\[nH]c(=O)n(C[C@H](C)C(=O)OC)c(=O)n3Cc3ccc(C)cc3)cc2c1C` [Compound R-220] had a negative logarithm of the IC50 (pIC50) of 7.66.
As for `COC(=O)[C@@H](C)Cn1c(=O)[nH]/c(=N\c2ccc(Oc3ccnc(F)c3)cc2)n(Cc2ccc(C)cc2)c1=O` [Compound R-221], the pIC50 was 8.30.
As for `CCc1oc2ccc(/N=c3\[nH]c(=O)n(C[C@H](C)C(=O)O)c(=O)n3Cc3ccc(C)cc3)cc2c1C` [Compound R-222], the pIC50 is 8.05.
For the compound `Cc1ccc(Cn2c(=O)n(C[C@H](C)C(=O)O)c(=O)[nH]/c2=N\c2ccc(Oc3ccnc(F)c3)cc2)cc1` [Compound R-223], the pIC50 is 8.15.
Next, `C[C@@H](C(=O)O)[C@H](C)n1c(=O)[nH]/c(=N\c2ccc(Oc3cnc(C#N)cn3)cc2)n(Cc2ccc(Cl)cc2)c1=O` [Compound R-224]: 7.92.
Take `COC(=O)CCn1c(=O)[nH]/c(=N\c2ccc(Oc3ccccn3)cc2)n(Cc2ccc(Cl)cc2)c1=O` [Compound R-225]: the pIC50 is 8.40. Against the preceding compound, the pIC50 is 0.48 log units higher.
The result for `COC(=O)CCn1c(=O)[nH]/c(=N\c2ccc(Oc3ccccn3)cc2)n(Cc2ccc(C)cc2)c1=O` [Compound R-226] reads 8.52; that for `COC(=O)CCn1c(=O)[nH]/c(=N\c2ccc(-n3ccccc3=O)cc2)n(Cc2ccc(Cl)cc2)c1=O` [Compound R-227], 7.46; that for `NC(=O)CCn1c(=O)[nH]/c(=N\c2ccc(Oc3ccccn3)cc2)n(Cc2ccc(Cl)cc2)c1=O` [Compound R-229], 8.15.
Take `CNC(=O)CCn1c(=O)[nH]/c(=N\c2ccc(Oc3ccccn3)cc2)n(Cc2ccc(Cl)cc2)c1=O` [Compound R-230]: the negative-log IC50 (pIC50) is 8.30.
The result for `C[C@@H](Cn1c(=O)[nH]/c(=N\c2ccc(Oc3ccc4nccn4n3)cc2)n(Cc2ccc(Cl)cc2)c1=O)C(=O)O` [Compound R-231] reads 8.30; that for `COc1nc(=O)n(Cc2ccc(Cl)cc2)/c(=N/c2ccc(Oc3cccc(C#N)n3)cc2)[nH]1` [Compound R-232], 7.21.
Next, `CC(C)(C)n1c(=O)[nH]/c(=N\c2ccc(Oc3cccc(C(N)=O)n3)cc2)n(Cc2ccc(Cl)cc2)c1=O` [Compound R-233]: 6.50; `CC1(C)OC[C@H](Cn2c(=O)[nH]/c(=N\c3ccc(Oc4ccccn4)cc3)n(Cc3ccc(Cl)cc3)c2=O)O1` [Compound R-234]: 8.52.
As to `O=c1[nH]/c(=N\c2ccc(Oc3ccccn3)cc2)n(Cc2ccc(Cl)cc2)c(=O)n1C[C@H](O)CO` [Compound R-235], the negative-log IC50 (pIC50) was 8.00.
Compound `CC1(Cn2c(=O)[nH]/c(=N\c3ccc(Oc4ccccn4)cc3)n(Cc3ccc(Cl)cc3)c2=O)COC(C)(C)OC1` [Compound R-236] gave a pIC50 of 8.40.
Next, `Cc1nccnc1Oc1ccc(/N=c2\[nH]c(=O)n(C[C@H](C)C(=O)O)c(=O)n2Cc2ccc(Cl)cc2)cc1` [Compound R-237]: 8.05; `COC(=O)Cn1c(=O)[nH]/c(=N\c2ccc(Oc3ccccn3)cc2)n(Cc2ccc(Cl)cc2)c1=O` [Compound R-238, 1-(4-chlorobenzyl)-3-(methoxycarbonylmethyl)-6-[4-(2-pyridyloxy)phenylimino]-1,3,5-triazinane-2,4-dione]: 8.15.
The result for `O=C(O)Cn1c(=O)[nH]/c(=N\c2ccc(Oc3ccccn3)cc2)n(Cc2ccc(Cl)cc2)c1=O` [Compound R-239, 1-(4-chlorobenzyl)-3-(hydroxylcarbonylmethyl)-6-[4-(2-pyridyloxy)phenylimino]-1,3,5-triazinane-2,4-dione] reads 6.40; that for `NC(=O)Cn1c(=O)[nH]/c(=N\c2ccc(Oc3ccccn3)cc2)n(Cc2ccc(Cl)cc2)c1=O` [Compound R-240, 1-(4-chlorobenzyl)-3-(carbamoylmethyl)-6-[4-(2-pyridyloxy)phenylimino]-1,3,5-triazinane-2,4-dione], 7.96; that for `CNC(=O)Cn1c(=O)[nH]/c(=N\c2ccc(Oc3ccccn3)cc2)n(Cc2ccc(Cl)cc2)c1=O` [Compound R-241], 8.05.
The result for `O=C(Cn1c(=O)[nH]/c(=N\c2ccc(Oc3ccccn3)cc2)n(Cc2ccc(Cl)cc2)c1=O)NCCO` [Compound R-242] reads 8.30; that for `O=C(Cn1c(=O)[nH]/c(=N\c2ccc(Oc3ccccn3)cc2)n(Cc2ccc(Cl)cc2)c1=O)NCC(F)(F)F` [Compound R-243], 8.40.
Regarding `CC(CO)(CO)Cn1c(=O)[nH]/c(=N\c2ccc(Oc3ccccn3)cc2)n(Cc2ccc(Cl)cc2)c1=O` [Compound R-244], the pIC50 was 8.40.
Next, `CC1(C)OCC(Cn2c(=O)[nH]/c(=N\c3ccc(Oc4ccccn4)cc3)n(Cc3ccc(Cl)cc3)c2=O)CO1` [Compound R-245]: 8.40.

These data come from patent US10065941B2, “Aminotriazine derivative and pharmaceutical composition comprising the same” (Shionogi & Co., Ltd., priority 2013, dated 2018).
